Source: patent US7674795B2, “Fluorene derivatives, composition containing said derivatives and the use thereof” (Aventis Pharma SA, priority 2005, dated 2010)
Counter-ions that a name gives are not always drawn.

biological target: Hsp82 (Saccharomyces cerevisiae, UniProt P02829); assay: PK/LDH enzyme coupling test of the ATPase activity of Hsp82 (NADH decrease at 340 nm); format: biochemical; conditions: 1 μM Hsp82, 250 μM ATP, 37° C., pyruvate kinase/lactate dehydrogenase coupling, read-out: Hsp82 ATPase IC50
Text: The formation of ADP due to the ATPase activity of Hsp82 was utilized for developing another method of evaluating the enzymatic activity of this enzyme by application of an enzyme coupling system employing pyruvate kinase (PK) and lactate dehydrogenase (LDH). In this spectrophotometric method of the kinetic type, the PK catalyses the formation of ATP and of pyruvate starting from phosphoenol-pyruvate (PEP) and the ADP produced by HSP82. The pyruvate that formed, an LDH substrate, is then converted to lactate in the presence of NADH. In this case, the decrease in the concentration of NADH, measured by the decrease in absorbance at wavelength of 340 nm, is proportional to the concentration of ADP produced by HSP82. […] This mixture is preincubated at 37° C. for 30 min before adding 3.77 units of LDH and 3.77 units of PK. The reaction is started by adding the product to be evaluated, in variable concentrations, and of Hsp82, at a concentration of 1 μM. The enzymatic activity of Hsp82 is then measured continuously in a microplate reader at 37° C., at wavelength of 340 nm. The initial reaction rate is found by measuring the slope of the tangent at the origin of the recorded curve. The enzymatic activity is expressed as μM of ADP formed per minute. The effect of the various products tested is expressed as percentage of inhibition of ATPase activity, using the following codes: • A: […]

Sequence of Hsp82 (P02829 whole entry): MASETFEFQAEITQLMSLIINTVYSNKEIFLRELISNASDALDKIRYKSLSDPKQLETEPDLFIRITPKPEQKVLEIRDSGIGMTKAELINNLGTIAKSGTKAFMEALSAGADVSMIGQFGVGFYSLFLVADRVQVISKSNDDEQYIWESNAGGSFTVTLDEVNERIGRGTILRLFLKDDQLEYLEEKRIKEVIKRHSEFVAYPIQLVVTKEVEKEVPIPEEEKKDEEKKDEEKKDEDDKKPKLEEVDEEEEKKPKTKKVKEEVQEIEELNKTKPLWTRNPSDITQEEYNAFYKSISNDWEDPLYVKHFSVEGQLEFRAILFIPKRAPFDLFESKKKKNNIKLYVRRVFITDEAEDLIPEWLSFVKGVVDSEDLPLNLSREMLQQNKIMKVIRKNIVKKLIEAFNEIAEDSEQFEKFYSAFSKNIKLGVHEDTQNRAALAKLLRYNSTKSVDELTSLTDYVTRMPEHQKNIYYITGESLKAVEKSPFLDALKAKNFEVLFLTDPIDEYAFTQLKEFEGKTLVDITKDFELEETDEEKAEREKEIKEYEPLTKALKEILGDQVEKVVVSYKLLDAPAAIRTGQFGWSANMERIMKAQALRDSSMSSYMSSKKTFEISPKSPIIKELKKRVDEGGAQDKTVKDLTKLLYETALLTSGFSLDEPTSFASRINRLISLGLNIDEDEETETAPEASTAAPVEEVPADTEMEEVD

IC50 [µM] | Structure (SMILES)
10 to 100 | c1ccc2c(c1)-c1c(-c3nc4cnccc4[nH]3)cccc1C2NCc1ccc2cc[nH]c2c1 (racemic) [Example 22, N-[4-(3H-imidazo[4,5-c]pyridin-2-yl)-9H-fluoren-9(R,S)-yl]-(1H-indol-6-ylmethyl)-amine]
1 to 10 | NC(=O)C[C@H](N)C(=O)NC1c2ccccc2-c2c(-c3nc4cnccc4[nH]3)cccc21 (stereo partly drawn) [Example 63, hydrochloride of (S)-2-amino-N1-[4-(3H-imidazo[4,5-c]pyridin-2-yl)-9H-fluoren-9(R,S)-yl]-succinamide]
1 to 10 | CC(C)(C)OC(=O)N[C@@H](CC(N)=O)C(=O)NC1c2ccccc2-c2c(-c3nc4cnccc4[nH]3)cccc21 (stereo partly drawn) [Example 57, tert-butyl ester of {(S)-2-carbamoyl-1-[4-(3H-imidazo[4,5-c]pyridin-2-yl)-9H-fluoren-9(R,S)-ylcarbamoyl]-ethyl}-carbamoic acid]
< 1 | O=C(OC1c2ccccc2-c2c(-c3nc4ccncc4[nH]3)cccc21)c1ccncc1 (racemic) [Example 122, 4-(3H-imidazo[4,5-c]pyridin-2-yl)-9H-fluoren-9(R,S)-yl ester of isonicotinic acid]
10 to 100 | O=C(O)C1c2ccccc2-c2c(-c3nc4cnccc4[nH]3)cccc21 (racemic) [Example 29, hydrochloride of 4-(1H-imidazo[4,5-c]pyridin-2-yl)-9H-fluorene-9(R,S)-carboxylic acid]
10 to 100 | O=C(NC1c2ccccc2-c2c(-c3nc4ccncc4[nH]3)cccc21)c1ccnc(C(=O)O)c1 (racemic) [Example 109, 4-[4-(3H-imidazo[4,5-c]pyridin-2-yl)-9H-fluoren-9(R,S)-ylcarbamoyl]-pyridine-2-carboxylic acid]
1 to 10 | NN=C1c2ccccc2-c2c1cccc2-c1nc2cnccc2[nH]1 (mixture of isomers) [Example 9, N-[4-(1H-imidazo[4,5-c]pyridin-2-yl)-fluoren-9-ylidene]-hydrazine, 60/40 mixture of E and Z isomers]
1 to 10 | c1cncc(CON=C2c3ccccc3-c3c2cccc3-c2nc3cnccc3[nH]2)c1 (mixture of isomers) [Example 11, O-(pyridin-3-yl)methyl 4-(3H-imidazo[4,5-c]pyridin-2-yl)-fluoren-9-one oxime (Z, E)]
10 to 100 | O=C1c2ccccc2-c2c1cccc2-c1nc2ccc(F)cc2[nH]1 [Example 69, 4-(6-fluoro-1H-benzimidazol-2-yl)-fluoren-9-one]
1 to 10 | O=C(NC1c2ccccc2-c2c(-c3nc4ccncc4[nH]3)cccc21)c1cc(Cl)cc2[nH]cnc12 (racemic) [Example 44, [4-(3H-imidazo[4,5-c]pyridin-2-yl)-9H-fluoren-9(R,S)-yl]amide of 6-chloro-1H-benzimidazole-4-carboxylic acid]
< 1 | O=C(NC1c2ccccc2-c2c(-c3nc4ccncc4[nH]3)cccc21)c1ccncc1 (racemic) [Example 47, N-[4-(3H-imidazo[4,5-c]pyridin-2-yl)-9H-fluoren-9(R,S)-yl]-isonicotinamide]
1 to 10 | O=C(NC1c2ccccc2-c2c(-c3nc4cnccc4[nH]3)cccc21)c1ccc[n+]([O-])c1 (racemic) [Example 56, N-[4-(3H-imidazo[4,5-c]pyridin-2-yl)-9H-fluoren-9(R,S)-yl]-1-oxynicotinamide]
1 to 10 | O=C(NC1c2ccccc2-c2c(-c3nc4cnccc4[nH]3)cccc21)c1cccc2[nH]ccc12 (racemic) [Example 53, [4-(3H-imidazo[4,5-c]pyridin-2-yl)-9H-fluoren-9(R,S)-yl]amide of 1H-indole-4-carboxylic acid]
1 to 10 | NC(=O)C[C@@H](N)C(=O)NC1c2ccccc2-c2c(-c3nc4cnccc4[nH]3)cccc21 (stereo partly drawn) [Example 65, hydrochloride of (R)-2-amino-N1-[4-(3H-imidazo[4,5-c]pyridin-2-yl)-9H-fluoren-9(R,S)-yl]-succinamide]
